Reference: patent US20210220295A1, “TREATMENT OF CANCER BY GUANIDINIUM DERIVATIVES” (priority 2018, published 2021)

Key:
[1] = mouse, in vivo
[2] = system: CAPANI cells (which are deficient in brca2); conditions: cited from earlier work
MCF-7 brca1+/+cells = conditions: 10 μM, exposure for 10 consecutive days; cited from earlier work

**Q.** Which results are given for “poly-[2-(2-ethoxyethoxyethyl)guanidinium hydrochloride]”?
**A.** tolerated dose, daily intravenous dosing regime [1]: 2.5 mg/kg body weight; tolerated dose, weekly basis ([1]; iv): 5 mg/kg body weight

**Q.** For `O=C1CCC(=O)N1c1cc(Cc2n[nH]c(=O)c3ccccc23)ccc1F` [KU0058684], which “inhibition of CAPANI cells” value [2] is on record?
**A.** inhibited

**Q.** For `CN(C)Cc1ccc(-c2nc3cccc4c3n2CCNC4=O)cc1` [AG14361], which “MCF-7 brca1+/+ cells eradicated” value (MCF-7 brca1+/+cells) is on record?
**A.** 50%

**Q.** For `Cc1nc2c(O)cccc2c(=O)[nH]1` [NU1025], which “inhibition of CAPANI cells” value [2] is on record?
**A.** not inhibited
